Experimental findings from patent publication US9896436B2, “Histone demethylase inhibitors” (Celgene Quanticel Research, Inc., priority 2014, dated 2018) are described below.

pIC50: −log10 of the molar value. A value given as a limit tells only on which side of the number the result lay.

Holding throughout (type): biochemical
Common to all, as to details: Table 5

One test addresses JMJD3 (Homo sapiens, UniProt O15054). In words: JMJD3 in vitro enzyme inhibition assay (AlphaScreen). From the text: (§1) This assay determines the ability of a test compound to inhibit Jarid1B, JMJD2C and JMJD3 demethylase activity. Baculovirus expressed Jarid1B (GenBank Accession #NM-006618, AA 2-751) was purchased from BPS Bioscience (Cat #50121) or custom made by MolecularThroughput. Baculovirus expressed JMJD2C (GenBank Accession #BC143571, AA 2-372) was purchased from BPS Bioscience (Cat#50105). Baculovirus expressed JMJD3 (GenBank Accession #NM-001080424, AA1043-end) was purchased from BPS Bioscience (Cat#50115).
The ability of test compounds to inhibit the activity of JMJD3 was determined in 384-well plate format under the following reaction conditions: 1 nM JMJD3, 250 nM H3K27me3-biotin labeled peptide (Anaspec cat #64367), 1 μM alpha-ketoglutaric acid in assay buffer of 50 mM HEPES, pH7.3, 0.005% Brij35, 0.5 mM TCEP, 0.2 mg/ml BSA, 50 μM sodium L-ascorbate, 5 μM ammonium iron(II) sulfate. Reaction product is determined quantitatively by AlphaScreen detection after the addition of detection reagents anti-H3K27me1 antibody, 5 μg/ml AlphaScreen® Streptavidin-coated Donor beads, and 5 μg/ml AlphaScreen® Protein A Acceptor beads in 50 mM HEPES, pH7.3, 10 mM NaCl, 0.005% Brij35, 10 mM EDTA, 2 mg/ml BSA. […]

Another test deals with Jarid1B (Homo sapiens (Human), UniProt Q9UGL1). The test is described as follows: Jarid1B in vitro enzyme inhibition assay (TR-FRET).
From the text: as §1
The ability of test compounds to inhibit the activity of Jarid1B was determined in 384-well plate format under the following reaction conditions: 0.8 nM Jarid1B, 300 nM H3K4me3-biotin labeled peptide (Anaspec cat #64357), 2 μM alpha-ketoglutaric acid in assay buffer of 50 mM HEPES, pH7.3, 0.005% Brij35, 0.5 mM TCEP, 0.2 mg/ml BSA, 50 μM sodium L-ascorbate, and 2 μM ammonium iron(II) sulfate. Reaction product was determined quantitatively by TR-FRET after the addition of detection reagent Phycolink Streptavidin-allophycocyanin (Prozyme) and Europium-anti-mono- or di-methylated histone H3 lysine 4 (H3K4me1-2) antibody (PerkinElmer) in the presence of 5 mM EDTA in LANCE detection buffer (PerkinElmer) at a final concentration of 25 nM and 1 nM, respectively. […]
(In general: TR-FRET usually uses a lanthanide donor and a delayed reading to cut background.)

The target of another test is JMJD2C (Homo sapiens (Human), UniProt Q9H3R0). The test is described as follows: JMJD2C in vitro enzyme inhibition assay (TR-FRET).
From the text: as §1
The ability of test compounds to inhibit the activity of JMJD2C was determined in 384-well plate format under the following reaction conditions: 0.3 nM JMJD2C, 300 nM H3K9me3-biotin labeled peptide (Anaspec cat #64360), 2 μM alpha-ketoglutaric acid in assay buffer of 50 mM HEPES, pH7.3, 0.005% Brij35, 0.5 mM TCEP, 0.2 mg/ml BSA, 50 μM sodium L-ascorbate, and 2 μM ammonium iron(II) sulfate. Reaction product was determined quantitatively by TR-FRET after the addition of detection reagent Phycolink Streptavidin-allophycocyanin (Prozyme) and Europium-anti-di-methylated histone H3 lysine 9 (H3K9me2) antibody (PerkinElmer) in the presence of 5 mM EDTA in LANCE detection buffer (PerkinElmer) at a final concentration of 50 nM and 1 nM, respectively. […]

Sequence of JMJD2C (Q9H3R0 2-372): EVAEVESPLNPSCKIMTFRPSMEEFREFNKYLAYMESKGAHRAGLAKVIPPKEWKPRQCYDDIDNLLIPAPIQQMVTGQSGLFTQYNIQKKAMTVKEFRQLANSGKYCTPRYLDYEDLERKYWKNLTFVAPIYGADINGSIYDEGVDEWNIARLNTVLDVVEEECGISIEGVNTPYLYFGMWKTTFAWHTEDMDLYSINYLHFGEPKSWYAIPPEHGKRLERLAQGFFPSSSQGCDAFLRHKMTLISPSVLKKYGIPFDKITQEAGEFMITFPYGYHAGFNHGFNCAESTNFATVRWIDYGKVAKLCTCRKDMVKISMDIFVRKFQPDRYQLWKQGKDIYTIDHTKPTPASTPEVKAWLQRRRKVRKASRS
Sequence of Jarid1B (Q9UGL1 2-751): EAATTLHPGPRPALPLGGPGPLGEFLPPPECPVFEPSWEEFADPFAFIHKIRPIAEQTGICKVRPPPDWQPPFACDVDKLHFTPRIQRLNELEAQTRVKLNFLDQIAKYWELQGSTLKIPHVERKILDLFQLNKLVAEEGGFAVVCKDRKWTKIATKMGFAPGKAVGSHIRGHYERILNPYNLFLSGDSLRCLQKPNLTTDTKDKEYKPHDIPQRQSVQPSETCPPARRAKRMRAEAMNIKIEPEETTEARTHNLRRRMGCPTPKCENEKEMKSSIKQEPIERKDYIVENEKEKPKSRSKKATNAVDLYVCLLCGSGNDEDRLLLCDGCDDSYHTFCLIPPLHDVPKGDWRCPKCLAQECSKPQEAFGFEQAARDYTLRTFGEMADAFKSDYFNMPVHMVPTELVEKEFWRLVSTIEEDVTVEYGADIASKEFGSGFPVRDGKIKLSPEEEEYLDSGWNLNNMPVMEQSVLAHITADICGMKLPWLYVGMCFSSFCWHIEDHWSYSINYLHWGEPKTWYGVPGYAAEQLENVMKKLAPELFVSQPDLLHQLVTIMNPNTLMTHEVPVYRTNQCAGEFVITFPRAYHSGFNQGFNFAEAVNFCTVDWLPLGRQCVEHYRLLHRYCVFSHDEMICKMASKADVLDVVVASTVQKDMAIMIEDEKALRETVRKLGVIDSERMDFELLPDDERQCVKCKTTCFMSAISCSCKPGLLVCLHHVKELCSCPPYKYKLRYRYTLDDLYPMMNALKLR

As to “2-{1-[(6-fluoro-1,2,3,4- tetrahydronaphthalen-1-yl)methyl]-1H- imidazol-4-yl}-4-[5-(trifluoromethyl)-1H 1,2,3-triazol-4-yl]pyridine [Example 100]”, the values for the negative logarithm of the IC50 (pIC50) against JMJD3, on Jarid1B and against JMJD2C were less than 5.00, no less than 7.00 and less than 5.00, respectively.
